For 21 molecules, IC50 and EC50 results are on record in US20250163038A1, “CBL-B MODULATORS AND USES THEREOF” (Nimbus Clio, Inc., priority 2021, published 2025).

A value given as a limit tells only on which side of the number the result lay.

Test [1] deals with Recombinant human Cbl-b (aa 36-427) (Homo sapiens, UniProt Q13191). The test is described as follows: Cbl-b Biochemical Assay (TR-FRET). Particulars: read-out: TR-FRET hCbl-b IC50.
Test [2] has as its system Jurkat (clone E6-1) cells with NFAT luciferase reporter. The test is described as follows: Jurkat reporter assay (NFAT Luciferase). It counts as cell-based. The conditions noted are these: Homo sapiens; Jurkat NFAT luciferase reporter cells, anti-CD3 stimulation, 6 hr; read-out: Jurkat NFAT EC50. (In a reporter assay the amount or activity of a reporter protein is the signal.)

Test [3] deals with T1, Recombinant human c-Cbl (aa 47-435) (Homo sapiens, UniProt P22681).
T1 sequence (P22681 47-435): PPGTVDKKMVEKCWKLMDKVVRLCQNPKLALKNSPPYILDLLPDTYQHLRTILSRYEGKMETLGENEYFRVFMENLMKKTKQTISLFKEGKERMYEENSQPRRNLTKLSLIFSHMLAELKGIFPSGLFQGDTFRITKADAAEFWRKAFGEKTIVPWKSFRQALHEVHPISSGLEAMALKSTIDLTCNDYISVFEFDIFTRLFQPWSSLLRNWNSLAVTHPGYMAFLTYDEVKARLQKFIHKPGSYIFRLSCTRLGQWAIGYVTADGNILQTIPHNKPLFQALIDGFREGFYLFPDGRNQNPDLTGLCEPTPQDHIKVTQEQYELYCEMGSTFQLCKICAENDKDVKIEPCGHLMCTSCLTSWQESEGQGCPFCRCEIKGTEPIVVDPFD
In words: c-Cbl Biochemical Assay (TR-FRET). The conditions noted are these: hc-Cbl Biochemical Assay (TR-FRET); read-out: TR-FRET hcCbl IC50.

Chain of Recombinant human Cbl-b (aa 36-427) (Q13191 36-427): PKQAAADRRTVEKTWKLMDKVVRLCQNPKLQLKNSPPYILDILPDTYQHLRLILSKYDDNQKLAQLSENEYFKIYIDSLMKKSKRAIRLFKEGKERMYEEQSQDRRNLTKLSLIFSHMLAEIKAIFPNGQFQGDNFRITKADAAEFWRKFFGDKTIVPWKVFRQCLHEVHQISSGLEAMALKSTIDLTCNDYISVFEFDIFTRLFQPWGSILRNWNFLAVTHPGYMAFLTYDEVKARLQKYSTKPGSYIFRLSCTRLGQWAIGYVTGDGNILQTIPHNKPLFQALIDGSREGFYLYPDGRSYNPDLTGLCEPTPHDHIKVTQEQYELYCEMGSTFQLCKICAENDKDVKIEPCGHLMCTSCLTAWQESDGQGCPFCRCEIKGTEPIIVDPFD

As for `Cc1cc(CN[C@@H]2CCC[C@@H]2O)cc2nc(-c3cccc(-c4ccc(F)cc4-c4nncn4C)c3)oc12` [FG-2, (1S,2R)-2-(((2-(4′-Fluoro-2′-(4-methyl-4H-1,2,4-triazol-3-yl)-[1,1′-biphenyl]-3-yl)-7-methylbenzo[d]oxazol-5-yl)methyl)amino)cyclopentan-1-ol], the concentration for half-maximal inhibition (IC50) in test [1] and in test [3] was below 200 nM throughout. In test [2], the EC50 (as a rule, the midpoint of the concentration-response curve) was below 200 nM.

Consider `COc1cccc2oc(-c3cccc(-c4ccc(F)cc4-c4nncn4C)c3)nc12` [FH-2, 2-(4′-Fluoro-2′-(4-methyl-4H-1,2,4-triazol-3-yl)-[1,1′-biphenyl]-3-yl)-4-methoxybenzo[d]oxazole], for which the IC50 in test [1] and in test [3] was 1000 to 10000 nM in each case. Besides, in test [2], the EC50 fell in the range of 10000 to 50000 nM.

Regarding `CCOCCNCc1cc(C(F)(F)F)c2oc(-c3cccc(-c4ccc(F)cc4-c4nncn4C)c3)nc2c1` [FI-2, 2-Ethoxy-N-((2-(4′-fluoro-2′-(4-methyl-4H-1,2,4-triazol-3-yl)-[1,1′-biphenyl]-3-yl)-7-(trifluoromethyl)benzo[d]oxazol-5-yl)methyl)ethan-1-amine], the IC50 in test [1] and in test [3] was below 200 nM throughout. The EC50 in test [2] is below 200 nM.

Turning to `Cn1cnnc1-c1cc(F)ccc1-c1cccc(-c2nc3cc(CN[C@@H]4CCC[C@@H]4O)cc(C(C)(F)F)c3o2)c1` [FJ-2, (1S,2R)-2-(((7-(1,1-Difluoroethyl)-2-(4′-fluoro-2′-(4-methyl-4H-1,2,4-triazol-3-yl)-[1,1′-biphenyl]-3-yl)benzo[d]oxazol-5-yl)methyl)amino)cyclopentan-1-ol], the IC50 in test [1] and in test [3] was below 200 nM in each case. Besides, the EC50 in test [2] is below 200 nM.

Regarding `CCCNCc1cc(C(F)(F)F)c2oc(-c3cccc(-c4ccc(F)cc4-c4nncn4C)c3)nc2c1` [FL-2, N-((2-(4′-Fluoro-2′-(4-methyl-4H-1,2,4-triazol-3-yl)-[1,1′-biphenyl]-3-yl)-7-(trifluoromethyl)benzo[d]oxazol-5-yl)methyl)propan-1-amine], the IC50 in test [1] and in test [3] was below 200 nM in each case. Moreover, the EC50 in test [2] is below 200 nM.

As for `Cn1cnnc1-c1cc(F)ccc1-c1cccc(-c2nc3cc(CNC4CC5(CCC5)C4)cc(C(F)(F)F)c3o2)c1` [FM-2, N-((2-(4′-Fluoro-2′-(4-methyl-4H-1,2,4-triazol-3-yl)-[1,1′-biphenyl]-3-yl)-7-(trifluoromethyl)benzo[d]oxazol-5-yl)methyl)spiro[3.3]heptan-2-amine], the IC50 in test [1] and in test [3] was below 200 nM each time. Further, in test [2], the EC50 was below 200 nM.

In the case of `COc1cc(CNCC2CCCC2)cc2nc(-c3cccc(-c4ccc(F)cc4-c4nncn4C)c3)oc12` [FN-1, 1-Cyclopentyl-N-((2-(4′-fluoro-2′-(4-methyl-4H-1,2,4-triazol-3-yl)-[1,1′-biphenyl]-3-yl)-7-methoxybenzo[d]oxazol-5-yl)methyl)methanamine], the IC50 in test [1] and in test [3] was below 200 nM each time. Moreover, the EC50 in test [2] was below 200 nM.

Turning to `CC(C)CCNCc1cc(C(F)(F)F)c2oc(-c3cccc(-c4ccc(F)cc4-c4nncn4C)c3)nc2c1` [FO-2, N-((2-(4′-Fluoro-2′-(4-methyl-4H-1,2,4-triazol-3-yl)-[1,1′-biphenyl]-3-yl)-7-(trifluoromethyl)benzo[d]oxazol-5-yl)methyl)-3-methylbutan-1-amine], the IC50 in test [1] and in test [3] was below 200 nM in each case. The EC50 in test [2] is below 200 nM.

As to `COc1cc(CN[C@@H]2CCC[C@@H]2OC)cc2nc(-c3cccc(-c4ccc(F)cc4-c4nncn4C)c3)oc12` [FQ-1, (1R,2S)—N-((2-(4′-Fluoro-2′-(4-methyl-4H-1,2,4-triazol-3-yl)-[1,1′-biphenyl]-3-yl)-7-methoxybenzo[d]oxazol-5-yl)methyl)-2-methoxycyclopentan-1-amine], the IC50 in test [1] and in test [3] was 200 to 1000 nM throughout. For the same molecule, the EC50 in test [2] lay within 1000 to 10000 nM.

As for `COc1cc(CNC[C@H]2CCCO2)cc2nc(-c3cccc(-c4ccc(F)cc4-c4nncn4C)c3)oc12` [FR-1, (R)-1-(2-(4′-Fluoro-2′-(4-methyl-4H-1,2,4-triazol-3-yl)-[1,1′-biphenyl]-3-yl)-7-methoxybenzo[d]oxazol-5-yl)-N-((tetrahydrofuran-2-yl)methyl)methanamine], the IC50 (commonly the midpoint of a concentration-inhibition curve) is below 200 nM in test [1] and 200 to 1000 nM in test [3]. The concentration giving a half-maximal response (EC50) in test [2] lay within 200 to 1000 nM.

`COc1cc(CNC[C@@H]2CCCO2)cc2nc(-c3cccc(-c4ccc(F)cc4-c4nncn4C)c3)oc12` [FS-2, (S)-1-(2-(4′-Fluoro-2′-(4-methyl-4H-1,2,4-triazol-3-yl)-[1,1′-biphenyl]-3-yl)-7-methoxybenzo[d]oxazol-5-yl)-N-((tetrahydrofuran-2-yl)methyl)methanamine]: the IC50 in test [1] and in test [3] was below 200 nM throughout. In test [2], the EC50 was below 200 nM.

`Cn1cnnc1-c1cc(F)ccc1-c1cccc(-c2nc3cc(CNCC4CCC4)cc(C4CC4)c3o2)c1` [FT-1, 1-Cyclobutyl-N-((7-cyclopropyl-2-(4′-fluoro-2′-(4-methyl-4H-1,2,4-triazol-3-yl)-[1,1′-biphenyl]-3-yl)benzo[d]oxazol-5-yl)methyl)methanamine]: the IC50 in test [1] and in test [3] was below 200 nM each time. Also, in test [2], the EC50 was below 200 nM.

With `COc1cc(CNCC2CC2)cc2nc(-c3cccc(-c4ccc(F)cc4-c4nncn4C)c3)oc12` [FU-1, 1-Cyclopropyl-N-((2-(4′-fluoro-2′-(4-methyl-4H-1,2,4-triazol-3-yl)-[1,1′-biphenyl]-3-yl)-7-methoxybenzo[d]oxazol-5-yl)methyl)methanamine], the 50% inhibitory concentration (IC50) in test [1] and in test [3] was below 200 nM in each case. In test [2], the half-maximal effective concentration (EC50) is 200 to 1000 nM.

With `CN(Cc1cc(C(F)(F)F)c2oc(-c3cccc(-c4ccc(F)cc4-c4nncn4C)c3)nc2c1)[C@@H]1CCC[C@@H]1O` [FW-3, (1S,2R)-2-(((2-(4′-Fluoro-2′-(4-methyl-4H-1,2,4-triazol-3-yl)-[1,1′-biphenyl]-3-yl)-7-(trifluoromethyl)benzo[d]oxazol-5-yl)methyl)(methyl)amino)cyclopentan-1-ol], the IC50 in test [1] and in test [3] was below 200 nM each time. Besides, the EC50 in test [2] was below 200 nM.

On to `CC(C)CNCc1cc(C(F)(F)F)c2oc(-c3cccc(-c4ccc(F)cc4-c4nncn4C)c3)nc2c1` [FX-2, N-((2-(4′-Fluoro-2′-(4-methyl-4H-1,2,4-triazol-3-yl)-[1,1′-biphenyl]-3-yl)-7-(trifluoromethyl)benzo[d]oxazol-5-yl)methyl)-2-methylpropan-1-amine], for which the IC50 in test [1] and in test [3] was below 200 nM each time. Moreover, the concentration for a half-maximal effect (EC50) in test [2] was below 200 nM.

For `COCCCNCc1cc(OC)c2oc(-c3cccc(-c4ccc(F)cc4-c4nncn4C)c3)nc2c1` [FY-1, N-((2-(4′-Fluoro-2′-(4-methyl-4H-1,2,4-triazol-3-yl)-[1,1′-biphenyl]-3-yl)-7-methoxybenzo[d]oxazol-5-yl)methyl)-3-methoxypropan-1-amine], the values for the IC50 in test [1] and in test [3] were below 200 nM and 200 to 1000 nM, respectively. Moreover, in test [2], the EC50 lay within 1000 to 10000 nM.

For `Cn1cnnc1-c1cc(F)ccc1-c1cccc(-c2cn3cc(CO)ccc3n2)c1` [FZ-5, (2-(4′-Fluoro-2′-(4-methyl-4H-1,2,4-triazol-3-yl)-[1,1′-biphenyl]-3-yl)imidazo[1,2-a]pyridin-6-yl)methanol], the IC50 in test [1] lay within 1000 to 10000 nM; in test [3], 10000 to 50000 nM. For the same molecule, the EC50 in test [2] was 10000 to 50000 nM.

For the molecule `COc1cc(CNCC2(O)CCC2)cc2nc(-c3cccc(-c4ccc(F)cc4-c4nncn4C)c3)oc12` [GA-1, 1-((((2-(4′-Fluoro-2′-(4-methyl-4H-1,2,4-triazol-3-yl)-[1,1′-biphenyl]-3-yl)-7-methoxybenzo[d]oxazol-5-yl)methyl)amino)methyl)cyclobutan-1-ol], the IC50 in test [1] and in test [3] was below 200 nM throughout. Moreover, the EC50 in test [2] is below 200 nM.

As for `Cn1cnnc1-c1cc(F)ccc1-c1cccc(-c2nc3cc(CNCC4COC4)cc(C(F)(F)F)c3o2)c1` [GB-2, 1-(2-(4′-Fluoro-2′-(4-methyl-4H-1,2,4-triazol-3-yl)-[1,1′-biphenyl]-3-yl)-7-(trifluoromethyl)benzo[d]oxazol-5-yl)-N-(oxetan-3-ylmethyl)methanamine], the IC50 in test [1] and in test [3] was below 200 nM each time. In test [2], the EC50 is below 200 nM.

With `Cn1cnnc1-c1cc(F)ccc1-c1cccc(-c2nc3cc(CNC4CCC4)cc(C(F)(F)F)c3o2)c1` [GC-2, N-((2-(4′-Fluoro-2′-(4-methyl-4H-1,2,4-triazol-3-yl)-[1,1′-biphenyl]-3-yl)-7-(trifluoromethyl)benzo[d]oxazol-5-yl)methyl)cyclobutanamine], the half-inhibitory concentration (IC50) in test [1] and in test [3] was below 200 nM throughout. The EC50 in test [2] was below 200 nM.

For `CCOCCNCc1cc(OC)c2oc(-c3cccc(-c4ccc(F)cc4-c4nncn4C)c3)nc2c1` [GD-1, 2-Ethoxy-N-((2-(4′-fluoro-2′-(4-methyl-4H-1,2,4-triazol-3-yl)-[1,1′-biphenyl]-3-yl)-7-methoxybenzo[d]oxazol-5-yl)methyl)ethan-1-amine], the IC50 was below 200 nM in test [1] and 200 to 1000 nM in test [3]. The EC50 in test [2] lay in the range of 200 to 1000 nM.
